According to patent US11072601B2, “μ-opioid receptor agonist and preparation method therefor and use thereof in field of medicine” (SHANGHAI SYNERGY PHARMACEUTICAL SCIENCES CO., LTD., priority 2017, dated 2021):

Key:
[1] = target: T1, cAMP pathway of MOR receptor (Homo sapiens, UniProt P35372); assay: cell-based; conditions: cAMP Hunter HEK293 cells, forskolin-induced cAMP; read-out: EC50 of cAMP levels affected by agonistic effect on MOR
T1 construct: host or cells: HEK293 (cAMP Hunter cell line)

[2] = test system: rat surgical incision injury model; assay: Rat surgical incision injury model, von Frey paw withdrawal threshold; type: in vivo, SD rats; conditions: rats, intravenous 0.3 mg/kg
Text: 8-week-old male SD rats weighing 200 g-300 g were used as experimental animals to determine the effect of the compound of Example H02, the compound of Example H04, the compound of Example H10, the compound of Example H16, the compound of Example H17, the compound of Example H18, the compound of Example H21 and the compound of Example H24 on surgical pain in rats after intravenous administration. The analgesic effect of the compounds was discussed.
A certain amount of the compounds or TRV130 (MCE, 15150) was weighed, and dissolved in ethanol/castor oil/water=10/10/80 as a clear and transparent solution.
Three days after the rats were acclimatized to the experimental environment, the preoperative base value was determined, and followed by the surgical pain operation described below, about 24 hours after the surgery, the basic value was measured before administration on all animals, and mechanically hypersensitive animals (the paw withdrawal threshold (PWT) was less than 5 g) was randomly assigned to each administration group according to PWT. The pain threshold was determined 30 minutes and 60 minutes after intravenous administration of the positive drug TRV130 or each compound of the present invention (at a dose of 0.3 mg/kg).
The surgical procedure was performed aseptically, and the surgical instruments (scissors, tweezers, scalpels, surgical cotton and sutures) were sterilized before surgery. The animals were anesthetized with sodium pentobarbital (50 mg/kg, injected intraperitoneally), and the toes of the animals were squeezed to confirm that the animals were completely anesthetized before surgery. From the position of 0.5 cm away from the heel, an incision about 1 cm was made in the longitudinal direction of the toe. After cutting the skin, the musculus flexor digitorum brevis was raised and a blunt injury was caused longitudinally. After pressing to stop bleeding, the wound was sutured. When the animal was completely awake (free to move), the animal was put back into the cage (the reference of the construction of surgical pain model: Timothy J. Brennan, Erik P. Vandermeulen, G. F. Gebhart. Characterization of a rat model of incisional pain. Pain, 64(1996):493-501).
An up-down method was used for the determination of pain sensitivity. The mechanical pain results were expressed as animal paw withdrawal response threshold (PWT). The rat was placed separately in a plexiglass box with a mesh at the bottom of the box to ensure that the rat's feet could be tested. The rat was acclimatized for 15 minutes before the test, and after the acclimatization, the test fiber (von frey fiber, West coast) was used to test in the middle part of the hind foot of the rat. The test fibers included 8 test strengths: 3.61 (0.4 g), 3.84 (0.6 g), 4.08 (1 g), 4.31 (2 g), 4.56 (4 g), 4.74 (6 g), 4.93 (8 g), and 5.18 (15 g). During the test, the test fiber was pressed vertically against the skin and a force was applied to bend the fiber for 6-8 seconds, at an interval of 5 seconds between each test. During the test, the animal's rapid withdrawal was recorded as a pain response. When the test fiber left the animal's skin, the animal's withdrawal was also recorded as a pain response. Starting from 2 g, depending on whether the rats had any pain response, the test was changed into the next test intensity or the previous test intensity. A series of responses of the rats to different test intensities were recorded. […] Wherein, Xf was the logarithmic value of von Frey fiber used in the last test, and K value was the animal withdrawal reaction mode (recorded during the test), which was the value obtained after looking up the table according to the obtained sequence of “X” and “O”, δ=Mean of logarithmic difference between von Frey fibers used in the test.

T1 sequence (P35372 whole entry): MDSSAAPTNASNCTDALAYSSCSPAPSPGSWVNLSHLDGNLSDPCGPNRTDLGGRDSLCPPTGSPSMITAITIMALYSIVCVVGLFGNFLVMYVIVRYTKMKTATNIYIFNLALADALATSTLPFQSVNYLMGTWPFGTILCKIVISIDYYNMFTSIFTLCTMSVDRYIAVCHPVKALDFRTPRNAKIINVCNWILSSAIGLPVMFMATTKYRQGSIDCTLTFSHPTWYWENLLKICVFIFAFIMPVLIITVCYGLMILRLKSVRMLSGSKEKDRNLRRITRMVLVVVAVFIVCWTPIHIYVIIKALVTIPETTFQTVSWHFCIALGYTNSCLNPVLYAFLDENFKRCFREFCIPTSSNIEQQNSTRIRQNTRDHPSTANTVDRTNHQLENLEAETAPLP

SMILES	EC50 [1]	50% PWT, 30 min after administration [2]	50% PWT, 60 min after administration [2]
Cc1c(Cl)cccc1CNCCC1(c2ccccn2)CCOC2(CCCC2)C1 (stereo not drawn) [Example H04, (3-chloro-2-methylbenzyl)-[2-(9-(pyridin-2-yl)-6-oxaspiro[4.5]decan-9-yl)ethyl]amine]	4.36 nM	11.72 ± 0.56 g	8.29 ± 1.06 g
FC(F)Oc1ccccc1CNCCC1(c2ccccn2)CCOC2(CCCC2)C1 (stereo not drawn) [Example H16, (2-difluoromethoxybenzyl)-[2-(9-(pyridin-2-yl)-6-oxaspiro[4.5]decan-9-yl)ethyl]amine]	1.36 nM	13.72 ± 0.56 g	10.29 ± 1.06 g
FC(F)Oc1ccsc1CNCCC1(c2ccccn2)CCOC2(CCCC2)C1 (stereo not drawn) [Example H18, ((3-difluoromethoxythiophen-2-yl)methyl)-[2-(9-(pyridin-2-yl)-6-oxaspiro[4.5]decan-9-yl)ethyl]a mine]	2.35 nM	7.85 ± 0.54 g	6.91 ± 0.33 g
Fc1ccc(C2(CCNCc3ccccc3OC(F)(F)F)CCOC3(CCCC3)C2)nc1 (stereo not drawn) [Example H21, {2-[9-(5-fluoro-pyridin-2-yl)-6-oxa-spiro[4.5]decan-9-yl]-ethyl}-(2-(trifluoromethoxy)-phenmethyl)-amine]	2.57 nM	10.72 ± 2.56 g	8.29 ± 1.06 g
FC(F)(F)Oc1ccc(Cl)cc1CNCCC1(c2ccccn2)CCOC2(CCCC2)C1 (stereo not drawn) [Example H17, (5-chloro-2-trifluoromethoxybenzyl)-[2-(9-(pyridin-2-yl)-6-oxaspiro[4.5]decan-9-yl)ethyl]amine]	1.89 nM	8.85 ± 1.59 g	7.91 ± 1.43 g
CNc1ccsc1C(=O)NCCC1(c2ccccn2)CCOC2(CCCC2)C1 (stereo not drawn) [Example H24, 3-methylamino-thiophene-2-carboxylic acid [2-(9-pyridin-2-yl-6-oxa-spiro[4.5]decan-9-yl)-ethyl]-amide]	3.74 nM	11.32 ± 2.35 g	7.29 ± 1.23 g
